Laboratory results published in patent US10005824B2, “Selective PYY compounds and uses thereof” (Novo Nordisk A/S, priority 2015, dated 2018).

Columns and labels:
[1] = target: T1, human NPY Y2 receptor (Homo sapiens, UniProt P49146); assay: Actone functional potency assay (Y2 in vitro potency, whole cell); assay type: cell-based
T1 construct: host or cells: HEK-293 cells that also express a cAMP-sensitive calcium channel
T1 sequence (P49146 1-381): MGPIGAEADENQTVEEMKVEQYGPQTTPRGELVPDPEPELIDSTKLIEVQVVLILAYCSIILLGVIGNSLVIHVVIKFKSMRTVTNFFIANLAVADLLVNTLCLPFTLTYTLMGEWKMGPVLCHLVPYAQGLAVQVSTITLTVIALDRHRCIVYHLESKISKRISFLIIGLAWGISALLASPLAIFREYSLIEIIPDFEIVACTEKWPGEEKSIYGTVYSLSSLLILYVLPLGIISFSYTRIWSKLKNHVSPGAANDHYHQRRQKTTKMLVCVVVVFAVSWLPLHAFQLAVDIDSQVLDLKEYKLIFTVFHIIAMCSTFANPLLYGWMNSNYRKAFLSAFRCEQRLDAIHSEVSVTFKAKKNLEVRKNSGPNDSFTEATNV
Description: The purpose of this example is to test the activity, or potency, of the PYY compounds in vitro. The Y2 in vitro potency is the measure of the activation of the human Y2 receptor subtype in a whole cell assay.
Actone Functional Potency Assay
The Neuropeptide Y (NPY) receptors are Gi-coupled seven trans-membrane receptors that mainly signal through the cAMP dependent pathway by inhibiting adenylate cyclase activity which results in a decrease of cAMP production from ATP. The Actone assay is based on a modified calcium channel that has a selective binding for cAMP, resulting in cellular calcium influx, detected by a calcium responsive dye. In order to measure decreased levels of cAMP, as result of NPY receptor activation, the β1/β2-adrenoreceptor agonist, isoproterenol, is added to activate adenylate cyclase and increases cAMP levels in the cell. Decreased cellular calcium concentrations, reflecting a decrease of cAMP levels due to NPY receptor activation, is detected as a decrease in fluorescence from the calcium sensitive dye.

[2] = target: T2, human Y1 receptor (Homo sapiens, UniProt P25929); assay: Scintillation proximity assay (SPA) receptor binding, Y1
T2 construct: expressed in transfected cells; host or cells: BHK-21 clone 6-482-8, IPTG-induced (membrane preparation)
T2 sequence (P25929 1-384): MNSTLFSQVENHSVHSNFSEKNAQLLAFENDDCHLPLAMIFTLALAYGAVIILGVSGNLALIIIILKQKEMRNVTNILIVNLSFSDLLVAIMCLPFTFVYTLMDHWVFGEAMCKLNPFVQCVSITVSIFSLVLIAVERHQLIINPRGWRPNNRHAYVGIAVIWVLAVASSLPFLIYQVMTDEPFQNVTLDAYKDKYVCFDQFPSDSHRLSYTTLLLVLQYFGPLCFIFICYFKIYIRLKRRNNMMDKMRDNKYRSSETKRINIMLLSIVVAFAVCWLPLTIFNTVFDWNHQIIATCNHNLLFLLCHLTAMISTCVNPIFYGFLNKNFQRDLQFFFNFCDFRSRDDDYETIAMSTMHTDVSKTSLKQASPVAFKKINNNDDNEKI
Method: (§1) The purpose of this example is to test the in vitro binding of the PYY compounds to the Y1, Y2, Y4 and Y5 receptor subtypes, respectively. The receptor binding affinity is a measure of affinity of a compound for the human Y1, Y2, Y4 and Y5 receptor subtypes, respectively.
(§2) Scintillation Proximity Assay (SPA)
(§3) NPY-Receptor Expressing Cell Lines.
(§4) All cells were cultured at +37° C. in a humidified atmosphere with 5% CO2. […] CHO-K1 cells stably expressing the human Y2 receptor (P49146, NPY2R_HUMAN, Uniprot) were cultured in DMEM F-12 with 10% FBS, 1% P/S, 150 μg/ml Hygromycin B and 10 μg/ml Puromycin antibiotic. CHO-K1 cells stably expressing the human Y4 receptor (P50391, NPY4R_HUMAN, Uniprot) were cultured in DMEM F-12 with 10% FBS, 1% P/S, 10 μg/ml Puromycin. HEK-293 cells stably expressing the human Y5 receptor (Q15761, NPY5R_HUMAN, Uniprot) were cultured in DMEM F-12 medium containing 10% FBS, 1% Penicillin-Streptomycin, 250 μg/ml G418 and 1 μg/ml puromycin.
The homogenate was centrifuged at 35000 g using an ultracentrifuge for 10 minutes at +4° C. and the supernatant was discarded and fresh homogenization buffer added. Homogenization of the pellet was repeated a total of three times.
Human Y receptor SPA binding assay were performed in white 96-well plates in a total volume of 200 μl per well.
(§5) Plates were sealed and incubated at +25° C. for 2 hours in a plate shaker set at 400 rpm and thereafter centrifuged at 1500 rpm for 10 minutes prior to reading of luminescence on a microplate scintillation and luminescence counter. […] Displacement of radioligand was measured as reduction in luminescence and IC50 values were calculated by nonlinear regression analysis of sigmoidal dose-response curves.

[3] = target: T3, human Y5 receptor (Homo sapiens, UniProt Q15761); assay: Scintillation proximity assay (SPA) receptor binding, Y5; conditions: membranes of HEK-293 cells, [125I]-PYY(1-36)
T3 construct: expressed in transfected cells; host or cells: HEK-293 (membrane preparation)
T3 sequence (Q15761 1-445): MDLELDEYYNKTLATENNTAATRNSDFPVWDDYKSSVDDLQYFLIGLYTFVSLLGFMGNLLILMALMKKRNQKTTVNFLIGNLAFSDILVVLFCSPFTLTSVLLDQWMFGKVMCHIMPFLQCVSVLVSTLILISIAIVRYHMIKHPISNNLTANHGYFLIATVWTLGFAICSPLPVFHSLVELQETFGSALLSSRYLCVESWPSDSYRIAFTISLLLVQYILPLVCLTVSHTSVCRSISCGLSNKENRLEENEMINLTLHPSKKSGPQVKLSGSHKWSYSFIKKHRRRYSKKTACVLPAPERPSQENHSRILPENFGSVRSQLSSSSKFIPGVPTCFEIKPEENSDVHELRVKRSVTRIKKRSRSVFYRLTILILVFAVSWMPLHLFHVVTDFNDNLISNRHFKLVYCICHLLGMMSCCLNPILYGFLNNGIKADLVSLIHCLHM
Method: as §1, §2, §3
as §4, with “puromycin. […]” for “puromycin.”
as §5

CC(C)CC(=O)N[C@@H](CCCNC(=N)N)C(=O)N1CCC[C@H]1C(=O)N[C@@H](CCC(=O)O)C(=O)N[C@@H](C)C(=O)N1CCC[C@H]1C(=O)NCC(=O)N[C@@H](CCCCNC(=O)CC[C@H](NC(=O)COCCOCCNC(=O)CC[C@H](NC(=O)CCCCCCCCCCCCCCCCC(=O)O)C(=O)O)C(=O)O)C(=O)N[C@@H](CC(=O)O)C(=O)N[C@@H](C)C(=O)N[C@@H](CO)C(=O)N1CCC[C@H]1C(=O)N[C@@H](CCC(=O)O)C(=O)N[C@@H](CCC(=O)O)C(=O)N[C@@H](CC(C)C)C(=O)N[C@@H](CCC(N)=O)C(=O)N[C@@H](CCCNC(=N)N)C(=O)N[C@@H](Cc1ccc(O)cc1)C(=O)N[C@@H](Cc1ccc(O)cc1)C(=O)N[C@@H](C)C(=O)N[C@@H](CCC(=O)O)C(=O)N[C@@H](CC(C)C)C(=O)N[C@@H](CCCNC(=N)N)C(=O)N[C@@H](Cc1c[nH]cn1)C(=O)N[C@@H](Cc1ccc(O)cc1)C(=O)N[C@@H](Cc1ccc(O)cc1)C(=O)N[C@@H](CC(N)=O)C(=O)N[C@@H](Cc1c[nH]c2ccccc12)C(=O)N[C@@H](CC(C)C)C(=O)N[C@H](C(=O)N[C@@H](CCCNC(=N)N)C(=O)N[C@@H](CCC(N)=O)C(=O)N[C@@H](CCCNC(=N)N)C(=O)N[C@@H](Cc1ccc(O)cc1)C(N)=O)[C@@H](C)O [Compound 53, N{alpha-4}-(3-Methylbutanoyl)-N{Epsilon-10}-[(4S)-4-carboxy-4-[[2-[2-[2-[[(4S)-4-carboxy-4-(17-carboxyheptadecanoylamino)butanoyl]amino]ethoxy]ethoxy]-acetyl]amino]butanoyl]-[Arg4,Lys10,Gln18,Glu23,Tyr28,Trp30,Leu31]-PYY(4-36)]
EC50 [1]: 0.77 nM | Ki [2]: > 10000 nM

CC(C)CC(=O)N[C@@H](CCCNC(=N)N)C(=O)N1CCC[C@H]1C(=O)N[C@@H](CCC(=O)O)C(=O)N[C@@H](C)C(=O)N1CCC[C@H]1C(=O)N1CCC[C@H]1C(=O)N[C@@H](CCCCNC(=O)CC[C@H](NC(=O)COCCOCCNC(=O)CC[C@H](NC(=O)CCCCCCCCCCCCCCCCC(=O)O)C(=O)O)C(=O)O)C(=O)N[C@@H](CC(=O)O)C(=O)N[C@@H](C)C(=O)N[C@@H](CO)C(=O)N1CCC[C@H]1C(=O)N[C@@H](CCC(=O)O)C(=O)N[C@@H](CCC(=O)O)C(=O)N[C@@H](CC(C)C)C(=O)N[C@@H](CCC(N)=O)C(=O)N[C@@H](CCCNC(=N)N)C(=O)N[C@@H](Cc1ccc(O)cc1)C(=O)N[C@@H](Cc1ccc(O)cc1)C(=O)N[C@@H](C)C(=O)N[C@@H](CO)C(=O)N[C@@H](CC(C)C)C(=O)N[C@@H](CCCNC(=N)N)C(=O)N[C@@H](Cc1c[nH]cn1)C(=O)N[C@@H](Cc1ccc(O)cc1)C(=O)N[C@@H](Cc1ccc(O)cc1)C(=O)N[C@@H](CC(N)=O)C(=O)N[C@@H](Cc1c[nH]c2ccccc12)C(=O)N[C@@H](CC(C)C)C(=O)N[C@H](C(=O)N[C@@H](CCCNC(=N)N)C(=O)N[C@@H](CCC(N)=O)C(=O)N[C@@H](CCCNC(=N)N)C(=O)N[C@@H](Cc1ccc(O)cc1)C(N)=O)[C@@H](C)O [Compound 56, N{alpha-4}-(3-Methylbutanoyl)-N{Epsilon-10}-[(4S)-4-carboxy-4-[[2-[2-[2-[[(4S)-4-carboxy-4-(17-carboxyheptadecanoylamino)butanoyl]amino]ethoxy]ethoxy]-acetyl]amino]butanoyl]-[Arg4,Pro9,Lys10,Gln18,Tyr28,Trp30,Leu31]-PYY(4-36)]
Ki [2]: > 10000 nM | Ki [3]: 279 nM

CC(C)CC(=O)N[C@@H](CCCNC(=N)N)C(=O)N1CCC[C@H]1C(=O)N[C@@H](CCC(=O)O)C(=O)N[C@@H](C)C(=O)N1CCC[C@H]1C(=O)NCC(=O)N[C@@H](CCCCNC(=O)CC[C@H](NC(=O)COCCOCCNC(=O)CC[C@H](NC(=O)CCCCCCCCCCCCCCCCC(=O)O)C(=O)O)C(=O)O)C(=O)N[C@@H](CC(=O)O)C(=O)N[C@@H](C)C(=O)N[C@@H](CO)C(=O)N1CCC[C@H]1C(=O)N[C@@H](CCC(=O)O)C(=O)N[C@@H](CCC(=O)O)C(=O)N[C@@H](CC(C)C)C(=O)N[C@@H](CCC(N)=O)C(=O)N[C@@H](CCCNC(=N)N)C(=O)N[C@@H](Cc1ccc(O)cc1)C(=O)N[C@@H](Cc1ccc(O)cc1)C(=O)N[C@@H](C)C(=O)N[C@@H](CO)C(=O)N[C@@H](CC(C)C)C(=O)N[C@@H](CCCNC(=N)N)C(=O)N[C@@H](Cc1c[nH]cn1)C(=O)N[C@@H](Cc1ccc(O)cc1)C(=O)N[C@@H](Cc1ccc(O)cc1)C(=O)N[C@@H](CC(N)=O)C(=O)N[C@@H](Cc1c[nH]c2ccccc12)C(=O)N[C@@H](CC(C)C)C(=O)N[C@H](C(=O)N[C@@H](CCCNC(=N)N)C(=O)N[C@@H](CCC(N)=O)C(=O)N[C@@H](CCCNC(=N)N)C(=O)N[C@@H](Cc1ccc(O)cc1)C(N)=O)[C@@H](C)O [Compound 59, N{alpha-4}-(3-Methylbutanoyl)-N{Epsilon-10}-[(4S)-4-carboxy-4-[[2-[2-[2-[[(4S)-4-carboxy-4-(17-carboxyheptadecanoylamino)butanoyl]amino]ethoxy]ethoxy]-acetyl]amino]butanoyl]-[Arg4,Lys10,Gln18,Tyr28,Trp30,Leu31]-PYY-(4-36)]
Ki [2]: > 10000 nM | Ki [3]: 279 nM
